According to US6369069B1 (Aventis Pharma Deutschland GmbH, priority 1998, dated 2002):

Tested on: Na^+-dependent Cl^−/HCO3^− exchanger (NCBE)
Assay: Inhibition of the Na+-dependent Cl−/HCO3− exchanger (NCBE) in human endothelial cells (pHi recovery, BCECF fluorescence, FLIPR)
Type: cell-based
Details: for Residual activity % of the NCBE at 10 μM: compound at 10 μM; for Residual activity of the NCBE at 10 μM: 10 μM compound, human endothelial cells (ECV-304), related to 100% and 0% pHi recovery controls
Method in brief: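 ECV-304 cells loaded with 5 μM BCECF-AM in NH4Cl-containing saline, then placed in Na+/HCO3−-free buffer to acidify. pHi recovery started with Na+/HCO3− buffer (50 μM HOE 642) plus compound at various concentrations. Fluorescence kinetics over 2 min at 35 °C, normalised to 100% and 0% (HCO3−-free) controls.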

Structure (SMILES)	Residual activity % of the NCBE at 10 μM (sub-table with R7 substituent) [%]	other results
N#CNS(=O)(=O)c1ccccc1-c1ccc(CN(CC2CCCO2)C(=O)CC2CCCC2)cc1 (stereo not drawn) [Example 368]		Residual activity % of the NCBE at 10 μM (R(3) to R(7) hydrogen series): 51.0%
CC(C(=O)N(Cc1ccccc1)Cc1ccc(-c2ccccc2S(=O)(=O)NC#N)cc1)c1ccsc1 (stereo not drawn) [Example 388]		Residual activity % of the NCBE at 10 μM (R(3) to R(7) hydrogen series): 63.7%
N#CNS(=O)(=O)c1ccccc1-c1ccc(CN(Cc2ccccc2)C(=O)Cc2ccco2)cc1 [Example 389]		Residual activity % of the NCBE at 10 μM (R(3) to R(7) hydrogen series): 51.5%
CC(C(=O)N(Cc1ccc(-c2ccccc2S(=O)(=O)NC#N)cc1)Cc1cccc2ccccc12)c1cccs1 (stereo not drawn) [Example 390]		Residual activity % of the NCBE at 10 μM (R(3) to R(7) hydrogen series): 89.8%
N#CNS(=O)(=O)c1ccccc1-c1ccc(CN(Cc2cccc3ccccc23)C(=O)Cc2ccco2)cc1 [Example 391]		Residual activity % of the NCBE at 10 μM (R(3) to R(7) hydrogen series): 55.4%
N#CNS(=O)(=O)c1ccccc1-c1ccc(CN(CC2(c3ccccc3)CCCC2)C(=O)Cc2cccs2)cc1 [Example 392]		Residual activity % of the NCBE at 10 μM (R(3) to R(7) hydrogen series): 55.6%
CC(C(=O)N(Cc1ccc(-c2ccccc2S(=O)(=O)NC#N)cc1)CC1(c2ccccc2)CCCC1)c1cccs1 (stereo not drawn) [Example 393]		Residual activity % of the NCBE at 10 μM (R(3) to R(7) hydrogen series): 16.7%
N#CNS(=O)(=O)c1ccccc1-c1ccc(CN(CC2(c3ccccc3)CCCC2)C(=O)Cc2ccco2)cc1 [Example 394]		Residual activity % of the NCBE at 10 μM (R(3) to R(7) hydrogen series): 72.5%
CCC(CC)(CN(Cc1ccc(-c2ccccc2S(=O)(=O)NC#N)cc1)C(=O)Cc1cccs1)c1ccc(OC)cc1 [Example 395]		Residual activity % of the NCBE at 10 μM (R(3) to R(7) hydrogen series): 50.9%
N#CNS(=O)(=O)c1ccccc1-c1ccc(CN(CC2CC(C(=O)N3CCCC3)=NO2)C(=O)Cc2cccs2)cc1 (stereo not drawn) [Example 396]		Residual activity % of the NCBE at 10 μM (R(3) to R(7) hydrogen series): 53.2%
CC(C(=O)N(Cc1ccc(-c2ccccc2S(=O)(=O)NC#N)cc1)CC1CC(C(=O)N2CCCC2)=NO1)c1cccs1 (stereo not drawn) [Example 397]		Residual activity % of the NCBE at 10 μM (R(3) to R(7) hydrogen series): 44.0%
Cc1ccc(C(C)C(=O)N(Cc2ccccc2)Cc2ccc(-c3ccccc3S(=O)(=O)NC#N)cc2)s1 (stereo not drawn) [Example 481]		Residual activity % of the NCBE at 10 μM (R(3) to R(7) hydrogen series): 62.6%
Cc1ccc(-c2ccc(CN(Cc3ccccc3)C(=O)Cc3cccs3)cc2)c(S(=O)(=O)NC#N)c1 [Example 513]	88.6	
Cc1ccc(-c2ccc(CN(Cc3cccc4ccccc34)C(=O)Cc3cccs3)cc2)c(S(=O)(=O)NC#N)c1 [Example 514]	74.9	
Cc1ccc(-c2ccc(CN(Cc3ccc4ccccc4c3)C(=O)Cc3cccs3)cc2)c(S(=O)(=O)NC#N)c1 [Example 515]	68.9	
Cc1ccc(-c2ccc(CN(Cc3ccccc3Cl)C(=O)Cc3cccs3)cc2)c(S(=O)(=O)NC#N)c1 [Example 516]	98.7	
Cc1ccc(-c2ccc(CN(Cc3cccs3)C(=O)Cc3cccs3)cc2)c(S(=O)(=O)NC#N)c1 [Example 517]	86.2	
Cc1ccc(-c2ccc(CN(CCc3ccccc3)C(=O)Cc3cccs3)cc2)c(S(=O)(=O)NC#N)c1 [Example 518]	93.5	
Cc1ccc(-c2ccc(CN(Cc3ccccc3F)C(=O)Cc3cccs3)cc2)c(S(=O)(=O)NC#N)c1 [Example 519]	95.6	
Cc1ccc(-c2ccc(CN(Cc3cccc(Cl)c3Cl)C(=O)Cc3cccs3)cc2)c(S(=O)(=O)NC#N)c1 [Example 520]	85.9	
Cc1ccc(-c2ccc(CN(Cc3ccccc3)C(=O)C(C)c3cccs3)cc2)c(S(=O)(=O)NC#N)c1 (stereo not drawn) [Example 521]	88.2	
Cc1ccc(-c2ccc(CN(Cc3cccc4ccccc34)C(=O)C(C)c3cccs3)cc2)c(S(=O)(=O)NC#N)c1 (stereo not drawn) [Example 522]	85.6	
Cc1ccc(-c2ccc(CN(Cc3ccc4ccccc4c3)C(=O)C(C)c3cccs3)cc2)c(S(=O)(=O)NC#N)c1 (stereo not drawn) [Example 523]	92.3	
Cc1ccc(-c2ccc(CN(Cc3cccs3)C(=O)C(C)c3cccs3)cc2)c(S(=O)(=O)NC#N)c1 (stereo not drawn) [Example 525]	74.0	
Cc1ccc(-c2ccc(CN(CCc3ccccc3)C(=O)C(C)c3cccs3)cc2)c(S(=O)(=O)NC#N)c1 (stereo not drawn) [Example 526]	64.9	
Cc1ccc(-c2ccc(CN(Cc3ccccc3F)C(=O)C(C)c3cccs3)cc2)c(S(=O)(=O)NC#N)c1 (stereo not drawn) [Example 527]	67.5	
Cc1ccc(-c2ccc(CN(Cc3cccc(Cl)c3Cl)C(=O)C(C)c3cccs3)cc2)c(S(=O)(=O)NC#N)c1 (stereo not drawn) [Example 528]	72.0	

Structure (SMILES)	Residual activity % of the NCBE at 10 μM (sub-table with R7 substituent) [%]	other results
Cc1ccc(-c2ccc(CN(Cc3ccccc3)C(=O)Cc3ccc(Cl)cc3)cc2)c(S(=O)(=O)NC#N)c1 [Example 529]	89.4	
Cc1ccc(-c2ccc(CN(Cc3cccc4ccccc34)C(=O)Cc3ccc(Cl)cc3)cc2)c(S(=O)(=O)NC#N)c1 [Example 530]	89.8	
Cc1ccc(-c2ccc(CN(Cc3ccc4ccccc4c3)C(=O)Cc3ccc(Cl)cc3)cc2)c(S(=O)(=O)NC#N)c1 [Example 531]	75.6	
Cc1ccc(-c2ccc(CN(Cc3ccccc3Cl)C(=O)Cc3ccc(Cl)cc3)cc2)c(S(=O)(=O)NC#N)c1 [Example 532]	71.0	
Cc1ccc(-c2ccc(CN(Cc3cccs3)C(=O)Cc3ccc(Cl)cc3)cc2)c(S(=O)(=O)NC#N)c1 [Example 533]	75.5	
Cc1ccc(-c2ccc(CN(CCc3ccccc3)C(=O)Cc3ccc(Cl)cc3)cc2)c(S(=O)(=O)NC#N)c1 [Example 534]	80.0	
Cc1ccc(-c2ccc(CN(Cc3ccccc3F)C(=O)Cc3ccc(Cl)cc3)cc2)c(S(=O)(=O)NC#N)c1 [Example 535]	84.0	
Cc1ccc(-c2ccc(CN(Cc3cccc(Cl)c3Cl)C(=O)Cc3ccc(Cl)cc3)cc2)c(S(=O)(=O)NC#N)c1 [Example 536]	76.3	
Cc1ccc(-c2ccc(CN(Cc3ccccc3)C(=O)Cc3ccsc3)cc2)c(S(=O)(=O)NC#N)c1 [Example 537]	54.4	
Cc1ccc(-c2ccc(CN(Cc3cccc4ccccc34)C(=O)Cc3ccsc3)cc2)c(S(=O)(=O)NC#N)c1 [Example 538]	80.3	
Cc1ccc(-c2ccc(CN(Cc3ccc4ccccc4c3)C(=O)Cc3ccsc3)cc2)c(S(=O)(=O)NC#N)c1 [Example 539]	65.2	
Cc1ccc(-c2ccc(CN(Cc3ccccc3Cl)C(=O)Cc3ccsc3)cc2)c(S(=O)(=O)NC#N)c1 [Example 540]	64.6	
Cc1ccc(-c2ccc(CN(Cc3cccs3)C(=O)Cc3ccsc3)cc2)c(S(=O)(=O)NC#N)c1 [Example 541]	52.8	
Cc1ccc(-c2ccc(CN(CCc3ccccc3)C(=O)Cc3ccsc3)cc2)c(S(=O)(=O)NC#N)c1 [Example 542]	67.4	
Cc1ccc(-c2ccc(CN(Cc3ccccc3F)C(=O)Cc3ccsc3)cc2)c(S(=O)(=O)NC#N)c1 [Example 543]	55.3	
Cc1ccc(-c2ccc(CN(Cc3cccc(Cl)c3Cl)C(=O)Cc3ccsc3)cc2)c(S(=O)(=O)NC#N)c1 [Example 544]	82.2	
Cc1ccc(-c2ccc(CN(Cc3ccccc3)C(=O)CC3CCCCC3)cc2)c(S(=O)(=O)NC#N)c1 [Example 545]	70.1	
Cc1ccc(-c2ccc(CN(Cc3cccc4ccccc34)C(=O)CC3CCCCC3)cc2)c(S(=O)(=O)NC#N)c1 [Example 546]	63.6	
Cc1ccc(-c2ccc(CN(Cc3ccc4ccccc4c3)C(=O)CC3CCCCC3)cc2)c(S(=O)(=O)NC#N)c1 [Example 547]	76.5	
Cc1ccc(-c2ccc(CN(Cc3ccccc3Cl)C(=O)CC3CCCCC3)cc2)c(S(=O)(=O)NC#N)c1 [Example 548]	65.2	
Cc1ccc(-c2ccc(CN(Cc3cccs3)C(=O)CC3CCCCC3)cc2)c(S(=O)(=O)NC#N)c1 [Example 549]	67.3	
Cc1ccc(-c2ccc(CN(CCc3ccccc3)C(=O)CC3CCCCC3)cc2)c(S(=O)(=O)NC#N)c1 [Example 550]	63.3	
Cc1ccc(-c2ccc(CN(Cc3ccccc3F)C(=O)CC3CCCCC3)cc2)c(S(=O)(=O)NC#N)c1 [Example 551]	82.6	
Cc1ccc(-c2ccc(CN(Cc3cccc(Cl)c3Cl)C(=O)CC3CCCCC3)cc2)c(S(=O)(=O)NC#N)c1 [Example 552]	61.5	
N#CNS(=O)(=O)c1ccc(Cl)cc1-c1ccc(CN(Cc2ccccc2)C(=O)Cc2cccs2)cc1 [Example 553]	85.7	
N#CNS(=O)(=O)c1ccccc1-c1ccc(CN(Cc2ccccc2)C(=O)Cc2cccs2)c(Cl)c1 [Example 554, 4′-{[Benzyl-(2-thiophen-2-ylacetyl)amino]methyl}-3′-chlorobiphenyl-2-sulfonylcyanamide]		Residual activity of the NCBE at 10 μM: 15%
CS(=O)(=O)c1cc(-c2ccccc2S(=O)(=O)NC#N)ccc1CN(Cc1ccccc1)C(=O)Cc1cccs1 [Example 555, 4′-{[Benzyl-(2-thiophen-2-ylacetyl)amino]methyl}-3′-methylsulfonyl-biphenyl-2-sulfonylcyanamide]		Residual activity of the NCBE at 10 μM: 31%
